Target: M^Pro (SARS-CoV-2 main protease) (Severe acute respiratory syndrome coronavirus 2, UniProt P0DTD1)
Experiment: FRET peptide
Type: biochemical

In the case of `CN1CCN(CC(=O)N2c3ccccc3C(=O)Nc3cccnc32)CC1` [Pirenzepine], the “% activation at 1 mM” value was over 15%.

From PMC7263498 (bioRxiv, 2020)
